# Laboratory results reported in US20240025862A1, “SUBSTITUTED N-PHENYLURACILS AND SALTS THEREOF, AND USE THEREOF AS HERBICIDAL ACTIVE SUBSTANCES” (Bayer Aktiengesellschaft, priority 2020, published 2024).
# Tests used:
# Type in all cases: in vivo
# Oryza sativa (ORYSA) = experiment: Post-emergence crop plant compatibility, greenhouse pot test (also comparative test C); details: for Post-emergence action against ORYSA (crop plant compatibility): vs untreated controls
# Procedure, shortened: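 Rice and other crops sprayed post-emergence at one-leaf stage (2–3 weeks after sowing) with WP or EC formulations plus 0.5% additive at 600 l/ha water. Visual rating about 3 weeks later versus untreated controls (100% = dead, 0% = like control); suffixes a–c denote different doses.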
# [1] = test system: Polygonum convolvulus (POLCO); experiment: Post-emergence herbicidal action, greenhouse pot test
# Procedure, shortened: (§1)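 Greenhouse-grown weeds in sandy loam were sprayed post-emergence at the one-leaf stage, 2–3 weeks after sowing. Compounds were formulated as WP or EC in water with 0.5% additive at 600 l/ha, at rates of 20 g/ha or less. Visual rating after about 3 weeks used a scale from 0% (like untreated control) to 100% (plants dead).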
# [2] = test system: Amaranthus retroflexus (AMARE); experiment: as above; details: rated visually after about 3 weeks vs untreated controls, 100% = plants have died
# Procedure, shortened: as §1
# Avena fatua (AVEFA) = experiment: as above; details: 20 g/ha, rated visually after about 3 weeks vs untreated controls, 100% = plants have died
# Procedure, shortened: as §1
# Veronica persica (VERPE) = experiment: as above
# Procedure, shortened: as §1
# Viola tricolor (VIOTR) = experiment: as above
# Procedure, shortened: as §1
# [3] = test system: Pharbitis purpurea (PHBPU); experiment: as above
# Procedure, shortened: as §1
# [4] = test system: Abutilon theophrasti (ABUTH); experiment: as above; details: rated visually after about 3 weeks vs untreated controls, 100% = plants have died
# Procedure, shortened: as §1
# [5] = test system: Alopecurus myosuroides (ALOMY); experiment: Post-emergence herbicidal action, greenhouse pot test (also comparative test C); details: rated visually after about 3 weeks vs untreated controls, 100% = plants have died
# Procedure, shortened: (§2)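 Greenhouse pot plants in sandy loam were sprayed post-emergence at the one-leaf stage (2–3 weeks after sowing) with WP or EC formulations plus 0.5% additive at 600 l/ha water. Activity was rated visually after about 3 weeks versus untreated controls (100% = dead, 0% = like control); rates were 20 g/ha or less, and 5 g/ha or less in the comparative test.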
# [6] = test system: Echinochloa crus-galli (ECHCG); experiment: as above
# Procedure, shortened: as §2
# Setaria viridis (SETVI) = experiment: as above
# Procedure, shortened: as §2
# [7] = test system: Matricaria inodora (MATIN); experiment: as above
# Procedure, shortened: as §2
# [8] = test system: Triticum aestivum (TRZAS); experiment: Post-emergence crop plant compatibility, greenhouse pot test; details: vs untreated controls
# Procedure, shortened: (§3)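 Crop plants grown in sandy loam in the greenhouse were sprayed post-emergence at the one-leaf stage, 2–3 weeks after sowing, with WP or EC formulations as aqueous suspension/emulsion plus 0.5% additive at 600 l/ha. Damage was rated visually about 3 weeks later versus untreated controls (0% = like control, 100% = plants dead).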
# Zea mays (ZEAMX) = experiment: as above; details: 1.25 g/ha, vs untreated controls
# Procedure, shortened: as §3
smiles,measurement,setting,value
Cn1c(C(F)(F)F)cc(=O)n(-c2cc(Oc3ccccc3OCC(=O)OCCOC(F)(F)F)c([N+](=O)[O-])cc2F)c1=O [I.6-41],Post-emergence action against ORYSA (crop plant compatibility),Oryza sativa (ORYSA); 1.25 g/ha,10%
same,Post-emergence action against ORYSA (crop plant compatibility),Oryza sativa (ORYSA); 5 g/ha,10%
same,Post-emergence action against ORYSA in %,"Oryza sativa (ORYSA); 20 g/ha, crop plant compatibility",20%
same,Post-emergence action against POLCO in %,[1]; dosage 20 g/ha,100%
same,Post-emergence action at 1.25 g/ha against AMARE in %,[2]; 1.25 g/ha,100%
same,Post-emergence action at 5 g/ha against AMARE in %,[2]; 5 g/ha,100%
same,Post-emergence action at 20 g/ha against AMARE in %,[2]; 20 g/ha,100%
same,Post-emergence action at 20 g/ha against AVEFA in %,Avena fatua (AVEFA),80%
same,Post-emergence action against VERPE,Veronica persica (VERPE); 5 g/ha,100%
same,Post-emergence action against VERPE,Veronica persica (VERPE); 20 g/ha,100%
same,Post-emergence action against VIOTR,Viola tricolor (VIOTR); 1.25 g/ha,100%
same,Post-emergence action against VIOTR,Viola tricolor (VIOTR); 5 g/ha,100%
same,Post-emergence action against VIOTR,Viola tricolor (VIOTR); 20 g/ha,100%
same,Post-emergence action against PHBPU in %,[3]; dosage 1.25 g/ha,100%
same,Post-emergence action against PHBPU in %,[3]; dosage 5 g/ha,100%
same,Post-emergence action against PHBPU in %,[3]; dosage 20 g/ha,100%
same,Post-emergence action at 1.25 g/ha against ABUTH in %,[4]; 1.25 g/ha,100%
same,Post-emergence action at 5 g/ha against ABUTH in %,[4]; 5 g/ha,100%
same,Post-emergence action at 20 g/ha against ABUTH in %,[4]; 20 g/ha,100%
same,Post-emergence action at 5 g/ha against ALOMY in %,[5]; 5 g/ha,80%
same,Post-emergence action at 20 g/ha against ALOMY in %,[5]; 20 g/ha,100%
same,Post-emergence action against ECHCG in %,[6]; dosage 5 g/ha,100%
same,Post-emergence action against ECHCG in %,[6]; dosage 20 g/ha,100%
same,Post-emergence action against SETVI,Setaria viridis (SETVI); 20 g/ha,100%
same,Post-emergence action against SETVI in %,Setaria viridis (SETVI); dosage 1.25 g/ha,100%
same,Post-emergence action against SETVI in %,Setaria viridis (SETVI); dosage 5 g/ha,100%
same,Post-emergence action against MATIN in %,[7]; dosage 5 g/ha,80%
same,Post-emergence action against MATIN in %,[7]; dosage 20 g/ha,100%
same,Post-emergence action against TRZAS (crop plant compatibility),[8]; 1.25 g/ha,10%
same,Post-emergence action against TRZAS (crop plant compatibility),[8]; 5 g/ha,20%
same,Post-emergence action against TRZAS (crop plant compatibility),[8]; 20 g/ha,20%
same,Post-emergence action against ZEAMX (crop plant compatibility),Zea mays (ZEAMX),20%
Cn1c(C(F)(F)F)cc(=O)n(-c2cc(Oc3ccccc3OCC(=O)OCc3cccnn3)c(Cl)cc2F)c1=O [I.7-291],Post-emergence action against ORYSA (crop plant compatibility),Oryza sativa (ORYSA); 1.25 g/ha,20%
same,Post-emergence action against POLCO in %,[1]; dosage 20 g/ha,100%
same,Post-emergence action at 1.25 g/ha against AMARE in %,[2]; 1.25 g/ha,100%
same,Post-emergence action at 5 g/ha against AMARE in %,[2]; 5 g/ha,100%
same,Post-emergence action at 20 g/ha against AMARE in %,[2]; 20 g/ha,100%
same,Post-emergence action at 20 g/ha against AVEFA in %,Avena fatua (AVEFA),100%
same,Post-emergence action against VERPE,Veronica persica (VERPE); 5 g/ha,100%
same,Post-emergence action against VERPE,Veronica persica (VERPE); 20 g/ha,100%
same,Post-emergence action against VIOTR,Viola tricolor (VIOTR); 1.25 g/ha,100%
same,Post-emergence action against VIOTR,Viola tricolor (VIOTR); 5 g/ha,100%
same,Post-emergence action against VIOTR,Viola tricolor (VIOTR); 20 g/ha,100%
same,Post-emergence action against PHBPU in %,[3]; dosage 1.25 g/ha,100%
same,Post-emergence action against PHBPU in %,[3]; dosage 5 g/ha,100%
same,Post-emergence action against PHBPU in %,[3]; dosage 20 g/ha,100%
same,Post-emergence action at 1.25 g/ha against ABUTH in %,[4]; 1.25 g/ha,100%
same,Post-emergence action at 5 g/ha against ABUTH in %,[4]; 5 g/ha,100%
same,Post-emergence action at 20 g/ha against ABUTH in %,[4]; 20 g/ha,100%
same,Post-emergence action at 5 g/ha against ALOMY in %,[5]; 5 g/ha,80%
same,Post-emergence action at 20 g/ha against ALOMY in %,[5]; 20 g/ha,100%
same,Post-emergence action against ECHCG in %,[6]; dosage 5 g/ha,100%
same,Post-emergence action against ECHCG in %,[6]; dosage 20 g/ha,100%
same,Post-emergence action against SETVI,Setaria viridis (SETVI); 20 g/ha,100%
same,Post-emergence action against SETVI in %,Setaria viridis (SETVI); dosage 1.25 g/ha,100%
same,Post-emergence action against SETVI in %,Setaria viridis (SETVI); dosage 5 g/ha,100%
same,Post-emergence action against MATIN in %,[7]; dosage 5 g/ha,100%
same,Post-emergence action against MATIN in %,[7]; dosage 20 g/ha,100%
same,Post-emergence action against TRZAS (crop plant compatibility),[8]; 1.25 g/ha,0%
same,Post-emergence action against TRZAS (crop plant compatibility),[8]; 5 g/ha,0%
same,Post-emergence action against ZEAMX (crop plant compatibility),Zea mays (ZEAMX),10%
"Cn1c(C(F)(F)F)cc(=O)n(-c2cc(Oc3ccccc3OCC(=O)OCC#N)c(Br)cc2F)c1=O [I.8-176, Cyanomethyl (2-{2-bromo-4-fluoro-5-[3-methyl-2,6-dioxo-4-(trifluoromethyl)-3,6-dihydropyrimidin-1(2H)-yl]phenoxy}phenoxy)acetate]",Post-emergence action against ORYSA (crop plant compatibility),Oryza sativa (ORYSA); 1.25 g/ha,0%
same,Post-emergence action against ORYSA (crop plant compatibility),Oryza sativa (ORYSA); 5 g/ha,20%
same,pest or weed control at 5 g/ha,"[1]; Fallopia convolvulus, 504 h, dosage 5 g/ha, read-out: Post-emergence action against POLCO in %",80%
same,pest or weed control at 20 g/ha,"[1]; Fallopia convolvulus, 504 h, dosage 20 g/ha, read-out: Post-emergence action against POLCO in %",100%
same,pest or weed control at 1.25 g/ha,"[2]; Amaranthus retroflexus, 504 h, 1.25 g/ha, read-out: Post-emergence action at 1.25 g/ha against AMARE in %",100%
same,pest or weed control at 5 g/ha,"[2]; Amaranthus retroflexus, 504 h, 5 g/ha, read-out: Post-emergence action at 5 g/ha against AMARE in %",100%
same,pest or weed control at 20 g/ha,"[2]; Amaranthus retroflexus, 504 h, 20 g/ha, read-out: Post-emergence action at 20 g/ha against AMARE in %",100%
same,pest or weed control at 20 g/ha,"Avena fatua (AVEFA); Avena fatua, 504 h, read-out: Post-emergence action at 20 g/ha against AVEFA in %",80%
same,pest or weed control at 1.25 g/ha,"Veronica persica (VERPE); Veronica persica, 504 h, 1.25 g/ha, read-out: Post-emergence action against VERPE",100%
same,pest or weed control at 5 g/ha,"Veronica persica (VERPE); Veronica persica, 504 h, 5 g/ha, read-out: Post-emergence action against VERPE",100%
same,pest or weed control at 20 g/ha,"Veronica persica (VERPE); Veronica persica, 504 h, 20 g/ha, read-out: Post-emergence action against VERPE",100%
same,pest or weed control at 1.25 g/ha,"Viola tricolor (VIOTR); Viola tricolor, 504 h, 1.25 g/ha, read-out: Post-emergence action against VIOTR",90%
same,pest or weed control at 5 g/ha,"Viola tricolor (VIOTR); Viola tricolor, 504 h, 5 g/ha, read-out: Post-emergence action against VIOTR",100%
same,pest or weed control at 20 g/ha,"Viola tricolor (VIOTR); Viola tricolor, 504 h, 20 g/ha, read-out: Post-emergence action against VIOTR",100%
same,pest or weed control at 1.25 g/ha,"[3]; Ipomoea purpurea, 504 h, dosage 1.25 g/ha, read-out: Post-emergence action against PHBPU in %",80%
same,pest or weed control at 5 g/ha,"[3]; Ipomoea purpurea, 504 h, dosage 5 g/ha, read-out: Post-emergence action against PHBPU in %",80%
same,pest or weed control at 20 g/ha,"[3]; Ipomoea purpurea, 504 h, dosage 20 g/ha, read-out: Post-emergence action against PHBPU in %",100%
same,pest or weed control at 1.25 g/ha,"[4]; Abutilon theophrasti, 504 h, 1.25 g/ha, read-out: Post-emergence action at 1.25 g/ha against ABUTH in %",100%
same,pest or weed control at 5 g/ha,"[4]; Abutilon theophrasti, 504 h, 5 g/ha, read-out: Post-emergence action at 5 g/ha against ABUTH in %",100%
same,pest or weed control at 20 g/ha,"[4]; Abutilon theophrasti, 504 h, 20 g/ha, read-out: Post-emergence action at 20 g/ha against ABUTH in %",100%
same,pest or weed control at 5 g/ha,"[5]; Alopecurus myosuroides, 504 h, 5 g/ha, read-out: Post-emergence action at 5 g/ha against ALOMY in %",80%
same,pest or weed control at 20 g/ha,"[5]; Alopecurus myosuroides, 504 h, 20 g/ha, read-out: Post-emergence action at 20 g/ha against ALOMY in %",100%
same,pest or weed control at 5 g/ha,"[6]; Echinochloa crus-galli, 504 h, dosage 5 g/ha, read-out: Post-emergence action against ECHCG in %",100%
same,pest or weed control at 20 g/ha,"[6]; Echinochloa crus-galli, 504 h, dosage 20 g/ha, read-out: Post-emergence action against ECHCG in %",100%
same,pest or weed control at 20 g/ha,"Setaria viridis (SETVI); Setaria viridis, 504 h, 20 g/ha, read-out: Post-emergence action against SETVI",100%
same,pest or weed control at 1.25 g/ha,"Setaria viridis (SETVI); Setaria viridis, 504 h, dosage 1.25 g/ha, read-out: Post-emergence action against SETVI in %",100%
same,pest or weed control at 5 g/ha,"Setaria viridis (SETVI); Setaria viridis, 504 h, dosage 5 g/ha, read-out: Post-emergence action against SETVI in %",100%
same,pest or weed control at 5 g/ha,"[7]; Tripleurospermum inodorum, 504 h, dosage 5 g/ha, read-out: Post-emergence action against MATIN in %",100%
same,pest or weed control at 20 g/ha,"[7]; Tripleurospermum inodorum, 504 h, dosage 20 g/ha, read-out: Post-emergence action against MATIN in %",100%
same,Post-emergence action against TRZAS (crop plant compatibility),[8]; 1.25 g/ha,0%
same,Post-emergence action against TRZAS (crop plant compatibility),[8]; 5 g/ha,20%
